Measured values: patent US12390470B2, “1-methylxanthine-based bioactive composition and method of use thereof” (Ingenious Ingredients, LP, priority 2021, dated 2025)

Key:
Type in all cases: in vivo
[1] = test system: male Swiss Albino mice; assay: Cook's pole climbing test, scopolamine-induced amnesia
Protocol: (§1) Behavioral studies were conducted in mice to examine the learning and memory ability by using Cook's pole and Passive shock avoidance test.
(§2) Twenty-four 8-week-old male Swiss Albino mice were housed in an animal room at a constant temperature (22±3° C.) and humidity (30%-70%) under a 12:12 h light-dark cycle with standard laboratory diet (Purina 5L79, Rat and Mouse 18% protein; PMI Nutrition International, Brentwood, MO, USA). Distilled water was provided ad libitum. All animal experiments were reviewed and approved by the Institutional Animal Ethical Committee (IAEC) of Radiant Research Services Pvt. Ltd (Bangalore, India). All research was conducted in accordance with the guidelines of the committee for the purpose of control and supervision of experiments on animals.
After one week of acclimation, the animals were randomly divided by body weight into three groups (n=8 per group in each test) for oral treatment once a day, at approximately same time each day (±1 hour), for 7 consecutive days: (1) vehicle control or (2) 1-methylxanthine or (3) 1-methylxanthine plus paraxanthine. The dose administered to the mice was calculated using US Food and Drug Administration for human equivalence doses (HED), assuming a human weight of 60 kg. The following HED was used in this study: 100 mg 1-methylxanthine (Ingenious Ingredients, L.P Lewisville, TX, USA; mouse dose: 20.5 mg/kg bw/day), or 100 mg 1-methylxanthine (Ingenious Ingredients, L.P Lewisville, TX, USA; mouse dose: 20.5 mg/kg bw/day) plus 100 mg paraxanthine (ENFINITY™, Ingenious Ingredients, L.P Lewisville, TX, USA; mouse dose: 20.5 mg/kg bw/day). 0.5% Carboxy Methyl Cellulose sodium was used as vehicle and the test item formulations were prepared daily. […] Food intake was monitored daily while water intake was ad libitum.
Mice were trained in such a way that the animal had to climb the pole (shock free zone) within 30 seconds to avoid a shock. […] At particular intervals, 20 trials were given for each animal and average of the shock avoidance and mistakes were recorded. […]

[2] = test system: male Swiss Albino mice; assay: Passive shock avoidance test, scopolamine-induced amnesia
Protocol: as §1, §2
After one week of acclimation, the animals were randomly divided by body weight into three groups (n=8 per group in each test) for oral treatment once a day, at approximately same time each day (±1 hour), for 7 consecutive days: (1) vehicle control or (2) 1-methylxanthine or (3) 1-methylxanthine plus paraxanthine. The dose administered to the mice was calculated using US Food and Drug Administration for human equivalence doses (HED), assuming a human weight of 60 kg. […] Food intake was monitored daily while water intake was ad libitum. […]

[3] = test system: male Swiss Albino mice; assay: Forced swim test
Protocol: as §2
After one week of acclimation, the animals were randomly divided by body weight into three groups (n=8 per group in each test) for oral treatment once a day, at approximately same time each day (±1 hour), for 28 consecutive days: (1) vehicle control or (2) 1-methylxanthine or (3) 1-methylxanthine plus paraxanthine. The dose administered to the mice was calculated using US Food and Drug Administration for human equivalence doses (HED), assuming a human weight of 60 kg. The following HED was used in this study: 100 mg 1-methylxanthine (Ingenious Ingredients, L.P Lewisville, TX, USA; mouse dose: 20.5 mg/kg bw/day), or 100 mg 1-methylxanthine (Ingenious Ingredients, L.P Lewisville, TX, USA; mouse dose: 20.5 mg/kg bw/day) plus 100 mg paraxanthine (ENFINITY™, Ingenious Ingredients, L.P Lewisville, TX, USA; mouse dose: 20.5 mg/kg bw/day). 0.5% Carboxy Methyl Cellulose sodium was used as vehicle and the test item formulations were prepared daily. Dosing was conducted via oral gavage using disposable polypropylene syringes with sterilized stainless steel gavage tubes. Food intake was monitored daily while water intake was ad libitum.
During treatment period, training was accomplished on a swimming chamber at a moderate room temperature for 15 mins. The animals were adapted to this procedure daily 1 hr after dosing for 5 days in a week during the treatment period. On 28th day of respective treatment of all the animals were subjected to force swim test. Animals were forced to swim individually for 30 min in a glass jar of height 20 cm, diameter 10 cm, and filled with fresh water to a depth of 15 cm at room temperature. The parameters measured were first occurrence of climbing (the period the animal tries to climb the wall of the chamber), duration of immobility (the total time during which the animal is immobile) and total time spent in active swimming (the total duration during which the animal swims throughout the experimental period).

## Cn1c(=O)[nH]c2nc[nH]c2c1=O [1-methylxanthine, 1-Methyl-3H-purine-2,6-dione]
[1]; Cook's pole
  Escape latency faster than control: 14.9%
[1]; mice, oral 7 days, scopolamine
  Escape latency, Cook's pole climbing test: 10.13 ± 0.83 s
[1]; summary of Cook's pole and passive shock avoidance tests
  Overall outcome on amnesia, memory and learning: showed reversal of amnesia induced by scopolamine and improved memory and learning
[2]; mice, oral 7 days, scopolamine
  Transfer latency, passive shock avoidance test: 24.25 ± 2.60 s
[2]; mouse, in vivo
  Transfer latency faster than control: 9.3%
[3]; 30 min forced swim, day 28
  Duration of immobility: 9.74 ± 0.79 min
  duration of mobility/active swimming: 20.26 ± 0.79 min
[3]; forced swim, day 28
  number of climbing: 6.7±1.16
[3]; mouse, in vivo
  Duration of immobility lower compared to control: 5.4%
  duration of mobility/active swimming greater compared to control: 2.8%
  number of climbing improved compared to control: 6.0%
[3]; summary
  Overall outcome on energy, endurance, mood: showed improved energy and endurance, improved mood
